# Measurements from publication PMC11620503 (Antimicrobial Agents and Chemotherapy, 2024).
# Where two headings read alike, the source gives them in different places.
# Legend:
# Assay in all cases: MIC, broth microdilution
# [1] = tested on: E. coli CDC-149 (NDM-7), PBP3 mutations; assay type: cell-based; conditions: Escherichia coli
# [2] = tested on: E. coli CDC-150 (NDM-5), PBP3 mutations; assay type: cell-based; conditions: Escherichia coli, fixed BLI concentration (μg/mL) in parentheses in label
# [3] = tested on: E. coli CDC-435 (NDM-1), PBP3 mutations; assay type: cell-based; conditions: Escherichia coli, fixed BLI concentration (μg/mL) in parentheses in label
# [4] = tested on: E. coli CDC-151 (NDM-5), PBP3 mutations; assay type: cell-based; conditions: Escherichia coli, fixed BLI concentration (μg/mL) in parentheses in label
# [5] = tested on: MEM-nonsusceptible Enterobacterales with serine-carbapenemases; assay type: cell-based; conditions: MEM-nonsusceptible Enterobacterales with serine-carbapenemases (58)
# 96 P. aeruginosa = assay type: cell-based, Pseudomonas aeruginosa; conditions: Pseudomonas aeruginosa (96)
# [6] = tested on: MEM-nonsusceptible Enterobacterales; assay type: cell-based; conditions: MEM-nonsusceptible Enterobacterales (127), cefiderocol 126 isolates
# [7] = tested on: E. coli CDC-162 (NDM-7), PBP3 mutations; assay type: cell-based; conditions: Escherichia coli
# [8] = tested on: MBL-producing isolates (Enterobacterales); assay type: cell-based; conditions: for MIC90: read-out: MIC90
# [9] = tested on: serine-carbapenemase-producing isolates (Enterobacterales); assay type: cell-based; conditions: Enterobacterales with serine-carbapenemases (80)
# [10] = CLSI breakpoints, marked c: breakpoints for β-lactam alone, tigecycline: FDA breakpoints
# [11] = fixed concentration (μg/mL) in label
# [12] = fixed concentration (μg/mL) in label, read-out: MIC50
# [13] = fixed concentration (μg/mL) in label, read-out: MIC90
# [14] = CLSI breakpoints, marked c: breakpoints for β-lactam alone
# [15] = Enterobacterales with metallo-carbapenemases (74), cefiderocol 73 isolates, CLSI breakpoints, marked c: breakpoints for β-lactam alone, tigecycline: FDA breakpoints
compound,measurement,setting,value
"CC(C)(O/N=C(\C(=O)N[C@@H]1C(=O)N2C(C(=O)[O-])=C(C[N+]3(CCNC(=O)c4ccc(O)c(O)c4Cl)CCCC3)CS[C@H]12)c1csc(N)n1)C(=O)O [FDC, cefiderocol]",MIC,[1],16 µg/mL
same,MIC,[2],4 µg/mL
same,MIC,[3],4 µg/mL
same,MIC,[4],4 µg/mL
same,CLSI MIC interpretation I (intermediate),[5]; [10],0%
same,CLSI MIC interpretation R (resistant),[5]; [10],0%
same,CLSI MIC interpretation S (susceptible),[5]; [10],100%
same,MIC Range,[5]; [11],≤0.06 to 4 µg/mL
same,MIC50,[5]; [12],0.5 µg/mL
same,MIC90,[5]; [13],2 µg/mL
same,CLSI MIC interpretation I (intermediate),96 P. aeruginosa; [14],0%
same,CLSI MIC interpretation R (resistant),96 P. aeruginosa; [14],0%
same,CLSI MIC interpretation S (susceptible),96 P. aeruginosa; [14],100%
same,MIC Range,96 P. aeruginosa; [11],≤0.06 to 4 µg/mL
same,MIC50,96 P. aeruginosa; [12],0.5 µg/mL
same,MIC90,96 P. aeruginosa; [13],2 µg/mL
same,CLSI MIC interpretation I (intermediate),[6]; [10],3.2%
same,CLSI MIC interpretation R (resistant),[6]; [10],0.8%
same,CLSI MIC interpretation S (susceptible),[6]; [10],96%
same,MIC50,[6]; [12],1 µg/mL
same,MIC90,[6]; [13],2 µg/mL
same,MIC,[7],8 µg/mL
same,CLSI MIC interpretation I (intermediate),[8]; [15],5.5%
same,CLSI MIC interpretation R (resistant),[8]; [15],1.4%
same,CLSI MIC interpretation S (susceptible),[8]; [15],93.2%
same,MIC50,"[8]; Enterobacterales with metallo-carbapenemases (74), cefiderocol 73 isolates, fixed concentration (μg/mL) in label, read-out: MIC50",1 µg/mL
same,MIC90,"[8]; Enterobacterales with metallo-carbapenemases (74), cefiderocol 73 isolates, fixed concentration (μg/mL) in label",4 µg/mL
same,MIC90,"[8]; MBL-producing isolates, comparators",≤ 4 µg/mL
same,CLSI MIC interpretation I (intermediate),[9]; [10],0%
same,CLSI MIC interpretation R (resistant),[9]; [10],0%
same,CLSI MIC interpretation S (susceptible),[9]; [10],100%
same,MIC Range,[9]; [11],≤0.06 to 4 µg/mL
same,MIC50,[9]; [12],0.25 µg/mL
same,MIC90,[9]; [13],2 µg/mL
